Like-named read-outs stand apart in the source and are kept apart here.
What was measured:
SARS-CoV-2 Mpro = SARS-CoV-2 Mpro (Severe acute respiratory syndrome coronavirus 2, UniProt P0DTD1); experiment: SARS-CoV-2 Mpro fluorometric (FRET peptide) enzymatic inhibition assay; assay type: biochemical; conditions: for fold more potent than disulfiram against Mpro: ratio of IC50 values vs disulfiram
SARS-CoV-2 PLpro = SARS-CoV-2 PLpro (Severe acute respiratory syndrome coronavirus 2, UniProt P0DTD1); experiment: SARS-CoV-2 PLpro fluorogenic enzymatic inhibition assay; assay type: biochemical
human cathepsin L = molecular target: T1, human cathepsin L (Homo sapiens, UniProt P07711); experiment: Human cathepsin L fluorogenic enzymatic inhibition assay; assay type: biochemical; conditions: for inhibitory effect on cathepsin L (in words): dose-response, Figure 4
T1 construct: purchased R & D Systems
T1 sequence (P07711 114-333): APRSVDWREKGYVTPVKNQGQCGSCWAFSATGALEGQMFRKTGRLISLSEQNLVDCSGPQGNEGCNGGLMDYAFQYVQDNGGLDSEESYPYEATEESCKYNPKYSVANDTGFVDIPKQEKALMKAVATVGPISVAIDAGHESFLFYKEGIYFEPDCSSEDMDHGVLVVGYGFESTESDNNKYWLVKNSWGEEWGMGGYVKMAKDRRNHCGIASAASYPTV

SARS-CoV-2 = SARS-CoV-2 infectivity cells-based assay (Huh7.5.1, immunofluorescence), antiviral efficacy; assay type: cell-based; conditions: for EC50: Severe acute respiratory syndrome coronavirus 2, Huh-7.5.1, 48 h, read-out: SARS-CoV-2 Infectivity Cells-Based Assay EC50; for CC50/EC50 Ratio (therapeutic ratio): CC50 over EC50
[1] = Cell viability / cytotoxicity in the SARS-CoV-2 Huh7.5.1 infectivity assay; conditions: human, Huh7.5.1 cells infected with SARS-CoV-2 (MOI 1.0), tested 60 to 0.08 µM, read-out: SARS-CoV-2 Infectivity Cells-Based Assay CC50 (converted)
[2] = cited from earlier work
SARS-CoV PLpro = conditions: cited from earlier work
[3] = Oral median lethal dose in mice (literature); assay type: in vivo; conditions: mouse, ratio of cited LD50 values
[4] = 1 nM cathepsin L, Z-Phe-Arg-AMC substrate, read-out: Cathepsin L IC50
[5] = 50 nM Mpro, 10 µM MCA-[…]-K(DNP)-K-NH2, no DTT, 37 °C, read-out: Mpro IC50
[6] = 24.46 nM PLpro, 50 µM Z-RLRGG-AMC, no DTT, 37 °C, read-out: PLpro IC50

Compound: CC(C)N(C(=S)SSC(=S)N(C(C)C)C(C)C)C(C)C [RI177, tetra-IsoPropyl-thiuram disulfide]
- IC50 (SARS-CoV-2 Mpro): 3800 ± 600 nM
- IC50 (SARS-CoV-2 PLpro): > 50000 nM
- IC50 (human cathepsin L; [4]): > 50000 nM
- inhibitory effect on cathepsin L (in words) (human cathepsin L): did not seem to have any inhibitory effect
- EC50 (SARS-CoV-2): > 60000 nM
- CC50 at 48 h [1]: > 60000 nM

Compound: CCOC(=S)SSC(=S)OCC [RI175, O,O-di-Ethyl dithiobis-thioformate]
- IC50 (SARS-CoV-2 Mpro): 300 ± 100 nM
- fold more potent than disulfiram against Mpro (SARS-CoV-2 Mpro): about 5 fold
- IC50 (SARS-CoV-2 PLpro): 600 ± 100 nM
- IC50 (human cathepsin L): 1900 ± 600 nM
- EC50 (SARS-CoV-2): > 60000 nM
- CC50 at 48 h [1]: > 60000 nM
- LD50 Mouse oral [2]: 1200 [32] mg/kg

Compound: CN(C(=S)SSC(=S)N(C)c1ccccc1)c1ccccc1 [RI176, di-Methyl-di-Phenyl-thiuram disulfide]
- IC50 (SARS-CoV-2 Mpro): > 50000 nM
- IC50 (SARS-CoV-2 PLpro): > 50000 nM
- IC50 (human cathepsin L; [4]): > 50000 nM
- inhibitory effect on cathepsin L (in words) (human cathepsin L): did not seem to have any inhibitory effect

Compound: CN(C)C(=S)SSC(=S)N(C)C [RI174, tetra-Methyl-thiuram disulfide]
- IC50 (SARS-CoV-2 Mpro): 2000 ± 300 nM
- IC50 (SARS-CoV-2 PLpro): 600 nM
- IC50 (human cathepsin L): 16900 ± 6900 nM
- EC50 (SARS-CoV-2): < 80 nM
- CC50 at 48 h [1]: < 80 nM
- LD50 Mouse oral [2]: 1350 [33] mg/kg

Compound: CCN(CC)C(=S)SSC(=S)N(CC)CC [Disulfiram, reference compound]
- IC50 (human cathepsin L): 2200 ± 1400 nM
- EC50 (SARS-CoV-2): 500 ± 200 nM
- CC50 at 48 h [1]: 900 nM
- IC50 (SARS-CoV PLpro): 24.1 µM
- LD50 Mouse oral [2]: 1980 [29] mg/kg

Compound: S=C(SSC(=S)N1CCCC1)N1CCCC1 [RI172, di-Pyrrolidine-thiuram disulfide]
- IC50 (SARS-CoV-2 Mpro): 600 ± 100 nM
- fold more potent than disulfiram against Mpro (SARS-CoV-2 Mpro): 2.5 fold
- IC50 (SARS-CoV-2 PLpro): 700 nM
- IC50 (human cathepsin L): 200 nM
- EC50 (SARS-CoV-2): < 80 nM
- CC50 at 48 h [1]: < 80 nM

Compound: CN1CCN(C(=S)SSC(=S)N2CCN(C)CC2)CC1 [RI171, di-4-Methylpiperazine-thiuram disulfide]
- IC50 (SARS-CoV-2 Mpro; [5]): 3200 ± 100 nM
- IC50 (SARS-CoV-2 PLpro; [6]): 1900 ± 100 nM
- IC50 (human cathepsin L; [4]): 4500 ± 700 nM
- CC50/EC50 Ratio (therapeutic ratio) (SARS-CoV-2; Huh7.5.1 cells): 0.9
- EC50 (SARS-CoV-2): 1900 ± 200 nM
- CC50 at 48 h [1]: 1700 nM
- LD50 Mouse oral [2]: 100 [26] mg/kg

Compound: S=C(SSC(=S)N1CCOCC1)N1CCOCC1 [RI173, di-Morpholine-thiuram disulfide]
- IC50 (SARS-CoV-2 Mpro; [5]): 600 ± 100 nM
- fold more potent than disulfiram against Mpro (SARS-CoV-2 Mpro): 2.5 fold
- IC50 (SARS-CoV-2 PLpro; [6]): 200 ± 100 nM
- fold more potent than disulfiram against PLpro (SARS-CoV-2 PLpro; ratio of IC50 values vs disulfiram): 19 fold
- IC50 (human cathepsin L; [4]): 1700 ± 600 nM
- concentration range of antiviral activity (SARS-CoV-2; Huh7.5.1 cells, MOI 1.0, 48 h): 100 to 200 nM
- CC50/EC50 Ratio (therapeutic ratio) (SARS-CoV-2; Huh7.5.1 cells): 3
- EC50 (SARS-CoV-2): 100 nM
- CC50 at 48 h [1]: 300 nM
- LD50 relative to LD50 of disulfiram [3]: approximately 1.6 times
- LD50 Mouse oral [2]: 3250 [31] mg/kg

Source: publication PMC9230533, “Discovery of Triple Inhibitors of Both SARS-CoV-2 Proteases and Human Cathepsin L” (Pharmaceuticals, 2022)
